Results reported in patent US7291295B2, “Method for precipitating finely divided solid particles” (Sociedad Espanola de Carburos Metalicos, S.A., priority 2000, dated 2007).

Experiment: Particle size and size distribution of precipitate by Coulter technique using light dispersion
Assay type: physicochemical
Description: FIGS. 8, 10 and 11 show the distribution of size of the particles using the Coulter technique using light dispersion.
The geometrical characteristics of the particles of precipitate (size and distribution of sizes) are measured by the Coulter technique that uses light dispersion with Fourier lenses. Thus, by “particle size” is meant the value of the median of the curve of distribution of particles, in % in volume, and by “distribution of sizes” is meant the value of the standard deviation from the same curve.

CC(=O)Oc1ccccc1C(=O)O [aspirin]
average size of particles of precipitate (Example 6, method of the invention, acetone-CO2, 70 bar, 25° C., molar fraction of CO2 0.6): 14 μm

CCCCNc1ccc(NCCCC)c2c1C(=O)c1ccccc1C2=O [solvent blue 35]
average size of particles of precipitate (Example 3, method of the invention, acetone-CO2, 60 bar, 25° C., 1,400 ml solution (FIG. 8)): 5 μm
average size of particles of precipitate (Example 4, GAS process fraction (filter 11), acetone-CO2, 60 bar, 25° C. (FIG. 10)): 70 μm
average size of particles of precipitate (Example 4, method of the invention (filter 13), acetone-CO2, 60 bar, 25° C., 640 ml solution (FIG. 11)): 4 μm

C1N2CN3CN1CN(C2)C3 [methenamine]
average size of particles of precipitate (Example 8, method of the invention, ethanol-CO2, 100 bar, 25° C., molar fraction of CO2 0.7): 8 μm

CCCCCCCCCCCCCCCCCC(=O)O [stearic acid]
average size of particles of precipitate (Example 7, method of the invention, ethyl acetate-CO2, 100 bar, 25° C., molar fraction of CO2 0.6): 2 μm

CC(=O)Nc1ccc(O)cc1 [acetaminophen]
average size of particles of precipitate (Example 1, method of the invention, ethanol-CO2, 100 bar, 42° C., 1,750 ml solution): 15 μm
average size of particles of precipitate (Example 2, GAS process fraction (filter 11), ethanol-CO2, 100 bar, 42° C.): 50 μm
average size of particles of precipitate (Example 2, method of the invention (filter 13), ethanol-CO2, 100 bar, 42° C., 1,600 ml solution): 15 μm
average size of particles of precipitate (Example 5, GAS process (filter 11), acetone-CO2, 100 bar, 42° C.): 50 μm
